Columns and labels:
Assay in all cases: pIC50, kinobeads binding competition
BRAF = BRAF (UniProt P15056)
Procedure, shortened: (§1)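 To obtain pIC50, fold changes versus vehicle were fitted to logistic dose-response curves (R drc package) across biological duplicates. Protein binding to Kinobeads was quantified by TMT10 LC-MS/MS of digested bead-bound proteins. Treatments used nine concentrations with a top of 30 μM, applied to live Jurkat cells in 1:4 steps for 60 min at 37 °C before lysis, or to Jurkat lysate or a 1:1:1:1 HEK293/K-562/HepG2/placenta lysate mix in 1:5 steps for 60 min at 4 °C.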

EPHB1 = target: T1, EPHB1 (UniProt P54762); conditions: cell material: Lysate mix
T1 sequence (whole entry): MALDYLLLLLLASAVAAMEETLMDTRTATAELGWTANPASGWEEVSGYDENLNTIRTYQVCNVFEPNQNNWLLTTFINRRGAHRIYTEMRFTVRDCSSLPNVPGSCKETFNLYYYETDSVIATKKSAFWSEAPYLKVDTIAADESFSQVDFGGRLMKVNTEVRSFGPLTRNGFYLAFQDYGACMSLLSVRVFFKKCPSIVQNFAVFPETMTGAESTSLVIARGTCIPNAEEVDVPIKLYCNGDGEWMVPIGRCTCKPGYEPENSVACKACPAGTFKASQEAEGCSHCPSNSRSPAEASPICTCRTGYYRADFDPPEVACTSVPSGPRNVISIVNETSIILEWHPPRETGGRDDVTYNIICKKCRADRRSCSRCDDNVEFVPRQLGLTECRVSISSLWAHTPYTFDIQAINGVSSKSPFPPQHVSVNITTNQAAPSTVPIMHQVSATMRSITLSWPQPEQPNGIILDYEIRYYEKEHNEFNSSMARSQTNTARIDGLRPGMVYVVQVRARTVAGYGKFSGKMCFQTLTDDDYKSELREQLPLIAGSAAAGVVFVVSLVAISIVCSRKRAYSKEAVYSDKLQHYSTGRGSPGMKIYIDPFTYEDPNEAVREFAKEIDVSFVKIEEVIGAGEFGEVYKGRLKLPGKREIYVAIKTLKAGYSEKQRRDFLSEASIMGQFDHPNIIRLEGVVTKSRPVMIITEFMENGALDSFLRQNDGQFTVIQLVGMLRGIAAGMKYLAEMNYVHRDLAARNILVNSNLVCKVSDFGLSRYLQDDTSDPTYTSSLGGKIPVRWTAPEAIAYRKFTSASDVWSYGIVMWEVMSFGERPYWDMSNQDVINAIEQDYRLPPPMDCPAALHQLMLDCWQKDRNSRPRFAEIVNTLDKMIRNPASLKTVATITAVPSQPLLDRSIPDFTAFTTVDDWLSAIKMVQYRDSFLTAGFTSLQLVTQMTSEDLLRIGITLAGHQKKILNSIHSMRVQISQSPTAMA
Procedure, shortened: as §1

NEK9 = target: T2, NEK9 (UniProt Q8TD19)
T2 sequence (whole entry): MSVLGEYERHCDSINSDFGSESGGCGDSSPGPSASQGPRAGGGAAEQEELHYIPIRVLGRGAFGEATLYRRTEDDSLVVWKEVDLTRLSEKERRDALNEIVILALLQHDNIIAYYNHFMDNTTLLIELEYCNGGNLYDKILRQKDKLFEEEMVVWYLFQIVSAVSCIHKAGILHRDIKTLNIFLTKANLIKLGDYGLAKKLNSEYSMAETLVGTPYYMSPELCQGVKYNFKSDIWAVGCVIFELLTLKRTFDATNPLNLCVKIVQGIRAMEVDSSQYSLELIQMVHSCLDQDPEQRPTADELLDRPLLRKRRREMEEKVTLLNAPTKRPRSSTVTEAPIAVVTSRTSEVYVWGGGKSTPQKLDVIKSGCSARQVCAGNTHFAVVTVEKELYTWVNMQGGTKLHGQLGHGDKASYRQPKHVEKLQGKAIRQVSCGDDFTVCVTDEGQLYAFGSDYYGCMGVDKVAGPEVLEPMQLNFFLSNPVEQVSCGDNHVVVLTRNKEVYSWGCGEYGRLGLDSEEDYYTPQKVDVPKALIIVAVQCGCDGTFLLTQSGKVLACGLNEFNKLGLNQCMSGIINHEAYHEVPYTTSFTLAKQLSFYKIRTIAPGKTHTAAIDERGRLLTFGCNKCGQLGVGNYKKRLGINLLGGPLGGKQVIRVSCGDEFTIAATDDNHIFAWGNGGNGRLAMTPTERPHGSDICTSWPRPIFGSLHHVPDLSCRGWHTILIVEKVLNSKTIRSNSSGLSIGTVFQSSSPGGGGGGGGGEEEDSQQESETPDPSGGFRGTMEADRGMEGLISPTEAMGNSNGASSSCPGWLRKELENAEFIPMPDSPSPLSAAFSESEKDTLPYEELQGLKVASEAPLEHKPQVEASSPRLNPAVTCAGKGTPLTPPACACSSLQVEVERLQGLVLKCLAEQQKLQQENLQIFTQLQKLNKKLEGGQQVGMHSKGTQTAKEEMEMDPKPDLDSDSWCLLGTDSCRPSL
Procedure, shortened: as §1

UniProt Q02763 = conditions: cell material: Lysate mix
Procedure, shortened: as §1

UniProt Q14289 = target: UniProt Q14289
Procedure, shortened: as §1

UniProt Q9NYV4 = target: UniProt Q9NYV4
Procedure, shortened: as §1

UniProt Q02763, sequence (Q02763 whole entry): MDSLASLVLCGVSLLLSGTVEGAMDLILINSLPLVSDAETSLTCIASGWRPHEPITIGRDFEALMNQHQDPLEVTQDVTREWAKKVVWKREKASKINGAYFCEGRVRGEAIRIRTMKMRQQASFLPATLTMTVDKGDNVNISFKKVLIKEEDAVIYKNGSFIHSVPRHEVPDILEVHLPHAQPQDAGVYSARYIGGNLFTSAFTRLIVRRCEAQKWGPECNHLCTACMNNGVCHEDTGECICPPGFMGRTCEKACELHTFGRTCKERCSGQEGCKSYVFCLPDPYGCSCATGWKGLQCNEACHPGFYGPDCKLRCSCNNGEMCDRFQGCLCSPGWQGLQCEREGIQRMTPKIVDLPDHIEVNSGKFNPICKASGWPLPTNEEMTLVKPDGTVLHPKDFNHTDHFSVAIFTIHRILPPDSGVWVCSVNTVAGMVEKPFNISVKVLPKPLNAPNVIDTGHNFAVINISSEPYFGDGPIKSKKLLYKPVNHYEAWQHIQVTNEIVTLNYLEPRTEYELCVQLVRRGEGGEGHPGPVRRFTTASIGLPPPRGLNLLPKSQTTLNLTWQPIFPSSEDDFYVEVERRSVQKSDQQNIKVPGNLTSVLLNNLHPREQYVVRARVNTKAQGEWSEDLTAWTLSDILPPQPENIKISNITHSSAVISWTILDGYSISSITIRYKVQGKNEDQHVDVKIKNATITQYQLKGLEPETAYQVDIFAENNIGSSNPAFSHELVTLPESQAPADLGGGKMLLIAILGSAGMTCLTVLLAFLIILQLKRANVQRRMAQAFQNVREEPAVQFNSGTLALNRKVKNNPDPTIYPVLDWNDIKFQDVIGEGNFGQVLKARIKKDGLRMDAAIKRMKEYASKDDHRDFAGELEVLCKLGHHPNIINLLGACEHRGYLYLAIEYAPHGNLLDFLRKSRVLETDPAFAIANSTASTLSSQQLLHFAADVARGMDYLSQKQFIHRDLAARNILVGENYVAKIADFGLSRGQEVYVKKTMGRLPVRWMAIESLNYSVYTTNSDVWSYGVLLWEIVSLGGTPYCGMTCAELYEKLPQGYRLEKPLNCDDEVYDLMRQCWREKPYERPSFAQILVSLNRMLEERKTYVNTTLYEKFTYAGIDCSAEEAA
BRAF, sequence (P15056 whole entry): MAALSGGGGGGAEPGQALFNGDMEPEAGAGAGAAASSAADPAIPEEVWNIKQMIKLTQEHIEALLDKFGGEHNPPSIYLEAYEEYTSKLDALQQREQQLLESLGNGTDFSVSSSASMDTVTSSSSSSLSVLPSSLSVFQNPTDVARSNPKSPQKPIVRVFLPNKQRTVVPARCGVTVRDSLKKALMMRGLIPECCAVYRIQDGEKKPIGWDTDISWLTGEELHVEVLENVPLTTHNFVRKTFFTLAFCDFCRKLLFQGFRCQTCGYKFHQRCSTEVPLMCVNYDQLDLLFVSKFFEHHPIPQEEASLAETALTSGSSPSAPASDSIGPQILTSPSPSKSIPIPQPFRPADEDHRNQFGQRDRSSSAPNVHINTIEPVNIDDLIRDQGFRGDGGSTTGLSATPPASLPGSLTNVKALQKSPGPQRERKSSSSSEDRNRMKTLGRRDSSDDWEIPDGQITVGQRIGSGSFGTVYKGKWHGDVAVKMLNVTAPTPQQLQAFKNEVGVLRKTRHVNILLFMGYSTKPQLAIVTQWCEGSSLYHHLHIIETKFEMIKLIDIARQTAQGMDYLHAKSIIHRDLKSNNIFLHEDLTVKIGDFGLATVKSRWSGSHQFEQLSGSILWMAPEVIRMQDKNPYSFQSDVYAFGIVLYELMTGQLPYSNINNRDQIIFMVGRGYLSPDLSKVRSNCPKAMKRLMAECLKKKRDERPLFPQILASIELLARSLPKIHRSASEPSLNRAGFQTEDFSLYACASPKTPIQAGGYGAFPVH
UniProt Q9NYV4, sequence (Q9NYV4 whole entry, looked up): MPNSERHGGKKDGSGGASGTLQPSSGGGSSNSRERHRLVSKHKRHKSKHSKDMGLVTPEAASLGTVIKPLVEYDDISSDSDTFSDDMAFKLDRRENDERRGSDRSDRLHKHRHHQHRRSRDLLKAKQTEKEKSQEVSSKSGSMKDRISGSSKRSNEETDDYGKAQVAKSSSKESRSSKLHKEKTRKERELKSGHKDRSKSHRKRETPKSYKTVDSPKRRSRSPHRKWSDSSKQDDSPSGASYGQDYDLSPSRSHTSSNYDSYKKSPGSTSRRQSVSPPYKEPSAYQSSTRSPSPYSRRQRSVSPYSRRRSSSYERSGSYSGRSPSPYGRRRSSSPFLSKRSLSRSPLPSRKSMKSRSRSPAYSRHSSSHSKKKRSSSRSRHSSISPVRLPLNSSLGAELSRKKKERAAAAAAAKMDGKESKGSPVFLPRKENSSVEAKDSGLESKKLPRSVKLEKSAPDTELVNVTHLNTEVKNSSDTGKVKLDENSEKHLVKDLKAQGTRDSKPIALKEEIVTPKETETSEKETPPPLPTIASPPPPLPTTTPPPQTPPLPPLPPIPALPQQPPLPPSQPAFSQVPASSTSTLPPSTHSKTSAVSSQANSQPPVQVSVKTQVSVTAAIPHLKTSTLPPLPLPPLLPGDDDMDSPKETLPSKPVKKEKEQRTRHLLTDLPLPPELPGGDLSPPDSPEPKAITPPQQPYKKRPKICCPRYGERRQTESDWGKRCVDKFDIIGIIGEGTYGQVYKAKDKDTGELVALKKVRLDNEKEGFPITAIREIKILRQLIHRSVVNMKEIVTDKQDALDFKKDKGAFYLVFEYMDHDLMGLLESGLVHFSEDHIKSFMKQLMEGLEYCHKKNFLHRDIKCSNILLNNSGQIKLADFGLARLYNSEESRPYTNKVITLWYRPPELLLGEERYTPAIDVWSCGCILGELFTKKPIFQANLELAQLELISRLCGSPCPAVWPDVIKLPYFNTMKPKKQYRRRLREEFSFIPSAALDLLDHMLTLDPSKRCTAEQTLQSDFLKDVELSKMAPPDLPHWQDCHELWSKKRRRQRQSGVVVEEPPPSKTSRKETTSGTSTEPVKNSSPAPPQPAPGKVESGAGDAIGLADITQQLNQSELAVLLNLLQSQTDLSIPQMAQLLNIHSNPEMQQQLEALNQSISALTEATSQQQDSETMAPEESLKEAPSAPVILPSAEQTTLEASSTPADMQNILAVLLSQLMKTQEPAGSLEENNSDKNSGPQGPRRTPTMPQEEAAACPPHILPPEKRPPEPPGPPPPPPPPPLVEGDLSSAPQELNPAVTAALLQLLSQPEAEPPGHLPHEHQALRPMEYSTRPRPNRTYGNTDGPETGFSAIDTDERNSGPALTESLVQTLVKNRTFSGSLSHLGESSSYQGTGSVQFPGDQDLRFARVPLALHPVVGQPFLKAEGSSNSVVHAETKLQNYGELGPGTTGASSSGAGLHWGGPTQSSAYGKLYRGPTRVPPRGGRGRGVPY
UniProt Q14289, sequence (Q14289 whole entry, looked up): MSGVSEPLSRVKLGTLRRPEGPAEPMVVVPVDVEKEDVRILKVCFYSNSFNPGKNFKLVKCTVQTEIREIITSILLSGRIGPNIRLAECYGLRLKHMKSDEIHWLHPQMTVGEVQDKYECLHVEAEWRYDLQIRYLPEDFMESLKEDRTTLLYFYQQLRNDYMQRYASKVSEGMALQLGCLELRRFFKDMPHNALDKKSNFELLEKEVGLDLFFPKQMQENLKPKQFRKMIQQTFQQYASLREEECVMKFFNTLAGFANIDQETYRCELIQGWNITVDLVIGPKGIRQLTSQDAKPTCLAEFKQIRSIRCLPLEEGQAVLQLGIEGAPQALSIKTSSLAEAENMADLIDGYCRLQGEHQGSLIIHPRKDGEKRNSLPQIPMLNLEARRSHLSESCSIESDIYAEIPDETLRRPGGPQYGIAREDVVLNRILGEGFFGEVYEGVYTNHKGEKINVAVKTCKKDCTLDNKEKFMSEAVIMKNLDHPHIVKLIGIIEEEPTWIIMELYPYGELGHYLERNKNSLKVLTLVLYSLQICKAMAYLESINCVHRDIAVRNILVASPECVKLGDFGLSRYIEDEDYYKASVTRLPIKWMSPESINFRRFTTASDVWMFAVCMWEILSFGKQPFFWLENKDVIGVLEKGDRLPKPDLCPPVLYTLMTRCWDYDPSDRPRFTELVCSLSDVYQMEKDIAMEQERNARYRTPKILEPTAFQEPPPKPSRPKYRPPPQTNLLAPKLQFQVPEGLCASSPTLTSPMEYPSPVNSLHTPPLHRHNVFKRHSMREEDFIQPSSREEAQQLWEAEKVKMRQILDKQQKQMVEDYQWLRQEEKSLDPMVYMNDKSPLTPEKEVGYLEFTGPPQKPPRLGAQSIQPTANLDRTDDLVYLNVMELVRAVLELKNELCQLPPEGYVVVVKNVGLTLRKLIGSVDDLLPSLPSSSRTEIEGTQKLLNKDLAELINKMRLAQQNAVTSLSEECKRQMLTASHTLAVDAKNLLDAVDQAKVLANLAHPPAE

SMILES | pIC50 (BRAF; cell material: Lysate mix) | pIC50 (EPHB1) | pIC50 (NEK9; cell material: Lysate mix) | pIC50 (UniProt Q02763) | pIC50 (UniProt Q14289; cell material: Lysate mix) | pIC50 (UniProt Q9NYV4; cell material: Lysate mix) | pIC50 (BRAF; cell material: Jurkat cells) | pIC50 (BRAF; cell material: Jurkat lysate) | pIC50 (NEK9; cell material: Jurkat cells) | pIC50 (NEK9; cell material: Jurkat lysate) | pIC50 (UniProt Q14289; cell material: Jurkat cells) | pIC50 (UniProt Q14289; cell material: Jurkat lysate) | pIC50 (UniProt Q9NYV4; cell material: Jurkat cells) | pIC50 (UniProt Q9NYV4; cell material: Jurkat lysate)
CCNC(=O)c1cc(Nc2cc(C)[nH]n2)nc(N2CCN(Cc3ccc(S(=O)(=O)F)cc3)CC2)n1 | < 4.52 | < 4.52 | 7.27 | < 4.52 | < 4.52 | < 4.52 |  |  |  |  |  |  |  | 
CCNC(=O)c1cc(Nc2cc(C3CC3)[nH]n2)nc(N2CCN(Cc3ccc(S(=O)(=O)F)cc3)CC2)n1 | < 4.52 | < 4.52 | 7.29 | < 4.52 | < 4.52 | 4.9 |  |  |  |  |  |  |  | 
Cc1cc(Nc2cc(C(=O)NCCNC(=O)OC3CC/C=C/CCC3)nc(N3CCN(Cc4ccc(S(=O)(=O)F)cc4)CC3)n2)n[nH]1 (stereo unspecified) | < 4.52 | < 4.52 | 5.2 | < 4.52 | < 4.52 | < 4.52 |  |  |  |  |  |  |  | 
C#CCNC(=O)c1cc(Nc2cc(C3CC3)[nH]n2)nc(N2CCN(Cc3ccc(S(=O)(=O)F)cc3)CC2)n1 | < 4.52 | < 4.52 | 7.48 | < 4.52 | < 4.52 | 5.34 | 5.36 | < 4.52 | 6.87 | 6.66 | 5.98 | < 4.52 | 6.33 | 
C#CCNC(=O)c1cc(Nc2cc(C)[nH]n2)nc(N2CCN(Cc3ccc(S(=O)(=O)F)cc3)CC2)n1 | < 4.52 | < 4.52 | 6.52 | < 4.52 | < 4.52 | < 4.52 |  |  |  |  |  |  |  | 
O=C(NCCNC(=O)c1cc(Nc2cc(C3CC3)[nH]n2)nc(N2CCN(Cc3ccc(S(=O)(=O)F)cc3)CC2)n1)OC1CC/C=C/CCC1 (stereo unspecified) | < 4.52 | < 4.52 | 5.56 | < 4.52 | < 4.52 | < 4.52 | < 4.52 | < 4.52 | 6.9 | 5.24 | 4.98 | < 4.52 | 5.85 | < 4.52
